Data published in US10829520B2, “Beta-hairpin peptidomimetics” (POLYPHOR AG, priority 2015, dated 2020).
Where a SMILES comes first, the peptide text is derived from it. Bridges are numbered along the chain shown (N, C = ends). Roman numbers before positions name the chains, in order. [ ]: non-standard residue; d: D form. Tle = CC(C)(C)[C@H](N)C(=O)O; dDab = NCC[C@@H](N)C(=O)O; Nle = CCCC[C@H](N)C(=O)O; Orn = NCCC[C@H](N)C(=O)O; Dab = NCC[C@H](N)C(=O)O; dAze = O=C(O)[C@H]1CCN1; Sar = CNCC(=O)O

Key:
Type in all cases: cell-based
[1] = test system: human red blood cells (hRBC); assay: Hemolysis of human red blood cells; conditions: red cells of human, 1 h
Method in brief: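 hRBC washed 3× PBS; 20% v/v, ~0.9×10^9 cells/mL final. Peptide 100 μg/mL, 1 h, 37° C., 300 rpm. Spin, supernatant diluted 8×, OD540. 0% = PBS + 0.001% acetic acid; 100% = 2.5% Triton X-100. % hemolysis = OD540 peptide/OD540 full lysis × 100.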

[2] = test system: Acinetobacter baumannii DSM 30008; conditions: DSM 30008
Method in brief: (§1)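 CLSI broth microdilution; MH-II (cation-adjusted) + 0.002% P-80; ~10^6 CFU/mL inoculum; peptide two-fold serial dilutions; 18-20 h, 35° C; MIC = no visible growth, μg/mL.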

[3] = test system: Klebsiella pneumoniae 968733; conditions: 968733
Escherichia coli 926415 = conditions: 926415
[4] = test system: Acinetobacter baumannii 872842; conditions: 872842
[5] = test system: Klebsiella pneumoniae SSI #3010; conditions: SSI #3010
Method in brief: as §1

[6] = test system: Pseudomonas aeruginosa ATCC 27853; conditions: ATCC 27853
Method in brief: as §1

[7] = test system: Escherichia coli ATCC 25922; conditions: ATCC 25922
Method in brief: as §1

Compound | Hemolysis at 100 μg/mL ([1]; 100 μg/mL) [%] | Acinetobacter baumannii DSM 30008 MIC [2] [µg/mL] | Klebsiella pneumoniae 968733 MIC [3] [µg/mL] | Escherichia coli 926415 MIC (Escherichia coli 926415) [µg/mL] | Acinetobacter baumannii 872842 MIC [4] [µg/mL] | Klebsiella pneumoniae SSI #3010 MIC [5] [µg/mL] | Pseudomonas aeruginosa ATCC 27853 MIC [6] [µg/mL] | Escherichia coli ATCC 25922 MIC [7] [µg/mL] | Hemolysis at 100 μg/mL [1]; 100 [%]
CCCC[C@@H]1NC(=O)[C@@H]2CCCN2C(=O)[C@H]2CCCN2C(=O)[C@H](CO)NC(=O)[C@H](C)NC(=O)[C@H](C(C)(C)C)NC(=O)[C@@H](NC(=O)[C@H](Cc2c[nH]c3ccccc23)NC(=O)[C@H](CCN)NC(C)=O)CSSC[C@@H](C(=O)N[C@@H](CCCN)C(=O)N[C@@H](CCN)C(=O)N[C@H]2CCNC(=O)[C@H]([C@@H](C)O)NC(=O)[C@H](CCN)NC(=O)[C@H](CCN)NC(=O)[C@H](CC(C)C)NC(=O)[C@@H](Cc3ccccc3)NC(=O)[C@H](CCN)NC2=O)NC(=O)[C@H](Cc2ccc(O)cc2)NC(=O)[C@H](CO)NC1=O [Ex. 35] (Ac-[Dab]WC[Tle]AS[dP]P[Nle]SYC[Orn][Dab][Dab][Dab][dF]L[Dab][Dab]T; disulfide 3-12; lactam 15-C) | 1 | 0.5 | 2 | 0.5 | 1 | 0.25 | 1 | 0.25 | –
CCCC[C@@H]1NC(=O)[C@@H]2CCCN2C(=O)[C@H]2CCCN2C(=O)[C@H](CO)NC(=O)[C@H](C)NC(=O)[C@H](C(C)(C)C)NC(=O)[C@H](CCN)NC(=O)[C@H](Cc2c[nH]c3ccccc23)NC(=O)[C@@H](N)CSSC[C@@H](C(=O)N[C@H](CCN)C(=O)N[C@H]2CCN(C)C(=O)[C@H]([C@@H](C)O)NC(=O)[C@H](CCN)NC(=O)[C@H](CCN)NC(=O)[C@H](CC(C)C)NC(=O)[C@@H](Cc3ccccc3)NC(=O)[C@H](CCN)NC2=O)NC(=O)[C@H](CCCN)NC(=O)[C@H](CCN)NC(=O)[C@H](Cc2ccc(O)cc2)NC(=O)[C@H](CO)NC1=O [Ex. 215] | <1 | 0.25 | 0.5 | 0.25 | 1 | 0.25 | 1 | 0.25 | –
CC(C)C[C@@H]1NC(=O)[C@@H](Cc2ccccc2)NC(=O)[C@H](CCN)NC(=O)[C@@H](NC(=O)[C@H](CCN)NC(=O)[C@@H](NC(=O)[C@H](CCN)NC(=O)CC[C@@H]2NC(=O)[C@H](CCN)NC(=O)[C@H](Cc3ccc(O)cc3)NC(=O)[C@@H]3CCNC(=O)C[C@H](NC(=O)[C@H](C(C)(C)C)NC(=O)[C@H](CCN)NC(=O)[C@H](Cc4c[nH]c5ccccc45)NC(=O)[C@H](CCN)NC(=O)[C@@H](CCN)NC2=O)C(=O)N[C@@H]([C@@H](C)O)C(=O)N2CC[C@@H]2C(=O)N2CCC[C@H]2C(=O)N[C@@H](C(C)C)C(=O)N3)[C@@H](C)O)CCNC(=O)[C@H]([C@@H](C)O)NC(=O)[C@H](CCN)NC(=O)[C@H](CCN)NC1=O [Ex. 86] (I: cyclo(DT[dAze]PV[Dab]Y[Dab]E[dDab][Dab]W[Dab][Tle]) / II: [Dab]T[Dab][Dab][Dab][dF]L[Dab][Dab]T; lactam I:1-I:6, II:4-II:C; amide I:9-II:N) | – | 1 | 0.5 | 0.25 | 0.5 | 0.25 | 0.5 | 0.25 | 1
CC(C)C[C@@H]1NC(=O)[C@@H](CC(C)C)NC(=O)[C@H](CCN)NC(=O)[C@@H](NC(=O)[C@H](CCN)NC(=O)[C@@H](NC(=O)[C@H](CCN)NC(=O)CNC(=O)[C@@H]2CSSC[C@H](NC(=O)[C@@H](N)Cc3c[nH]c4ccccc34)C(=O)N[C@@H](C(C)C)C(=O)N[C@@H](C)C(=O)N[C@@H](CO)C(=O)N3CCC[C@@H]3C(=O)N3CCC[C@H]3C(=O)N[C@@H](CC(C)C)C(=O)N[C@@H](CO)C(=O)N[C@@H](Cc3ccc(O)cc3)C(=O)N2)[C@@H](C)O)CCNC(=O)[C@H]([C@@H](C)O)NC(=O)[C@H](CCN)NC(=O)[C@H](CCN)NC1=O [Ex. 131] (H-WCVAS[dP]PLSYCG[Dab]T[Dab][Dab][Dab][dL]L[Dab][Dab]T; disulfide 2-11; lactam 16-C) | <1 | 0.125 | 0.25 | 0.25 | 0.125 | 0.125 | 0.5 | 0.0625 | –
CC(C)C[C@@H]1NC(=O)[C@@H](CC(C)C)NC(=O)[C@H](CCN)NC(=O)[C@@H](NC(=O)[C@H](CCN)NC(=O)[C@@H](NC(=O)[C@H](CCN)NC(=O)CN(C)C(=O)[C@@H]2CSSC[C@H](NC(=O)[C@@H](N)Cc3c[nH]c4ccccc34)C(=O)N[C@@H](C(C)C)C(=O)N[C@@H](C)C(=O)N[C@@H](CO)C(=O)N3CCC[C@@H]3C(=O)N3CCC[C@H]3C(=O)N[C@@H](CC(C)C)C(=O)N[C@@H](CO)C(=O)N[C@@H](Cc3ccc(O)cc3)C(=O)N2)[C@@H](C)O)CCNC(=O)[C@H](C(C)C)NC(=O)[C@H](CCN)NC(=O)[C@H](CCN)NC1=O [Ex. 179] (H-WCVAS[dP]PLSYC[Sar][Dab]T[Dab][Dab][Dab][dL]L[Dab][Dab]V; disulfide 2-11; lactam 16-C) | <1 | 0.0625 | 0.5 | 0.125 | 0.0625 | 0.125 | 1 | 0.0625 | –
CCCC[C@@H]1NC(=O)[C@@H]2CCCN2C(=O)[C@H]2CCCN2C(=O)[C@H](CO)NC(=O)[C@H](C)NC(=O)[C@H](C(C)(C)C)NC(=O)[C@@H](NC(=O)[C@H](Cc2c[nH]c3ccccc23)NC(C)=O)CSSC[C@@H](C(=O)NCC(=O)N[C@@H](CCN)C(=O)N[C@H](C(=O)N[C@@H](CCN)C(=O)N[C@H]2CCNC(=O)[C@H]([C@@H](C)O)NC(=O)[C@H](CCN)NC(=O)[C@H](CCN)NC(=O)[C@H](CC(C)C)NC(=O)[C@@H](Cc3ccccc3)NC(=O)[C@H](CCN)NC2=O)[C@@H](C)O)NC(=O)[C@H](Cc2ccc(O)cc2)NC(=O)[C@H](CO)NC1=O [Ex. 26] (Ac-WC[Tle]AS[dP]P[Nle]SYCG[Dab]T[Dab][Dab][Dab][dF]L[Dab][Dab]T; disulfide 2-11; lactam 16-C) | <1 | 0.5 | 0.5 | 0.25 | 0.125 | 0.25 | 0.25 | 0.0625 | –
CC(C)C[C@@H]1NC(=O)[C@@H](CC(C)C)NC(=O)[C@H](CCN)NC(=O)[C@@H](NC(=O)[C@H](CCN)NC(=O)[C@@H](NC(=O)[C@H](CCN)NC(=O)CNC(=O)[C@@H]2CSSC[C@H](NC(=O)[C@@H](N)Cc3c[nH]c4ccccc34)C(=O)N[C@@H](C(C)C)C(=O)N[C@@H](C)C(=O)N[C@@H](CO)C(=O)N[C@H](CO)C(=O)N3CCC[C@H]3C(=O)N[C@@H](CC(C)C)C(=O)N[C@@H](CO)C(=O)N[C@@H](Cc3ccc(O)cc3)C(=O)N2)[C@@H](C)O)CCNC(=O)[C@H]([C@@H](C)O)NC(=O)[C@H](CCN)NC(=O)[C@H](CCN)NC1=O [Ex. 130] (H-WCVAS[dS]PLSYCG[Dab]T[Dab][Dab][Dab][dL]L[Dab][Dab]T; disulfide 2-11; lactam 16-C) | <1 | 0.0625 | 0.125 | 0.25 | 0.0625 | 0.0625 | 0.25 | 0.0625 | –
CCCC[C@@H]1NC(=O)[C@@H]2CCCN2C(=O)[C@H]2CCCN2C(=O)[C@H](CO)NC(=O)[C@H](C)NC(=O)[C@H](C(C)(C)C)NC(=O)[C@H](CCN)NC(=O)[C@H](Cc2c[nH]c3ccccc23)NC(=O)[C@@H](NC(C)=O)CCC(=O)NCC[C@@H](C(=O)N[C@@H](CCN)C(=O)N[C@H]2CCNC(=O)[C@H]([C@@H](C)O)NC(=O)[C@H](CCN)NC(=O)[C@H](CCN)NC(=O)[C@H](CC(C)C)NC(=O)[C@@H](Cc3ccccc3)NC(=O)[C@H](CCN)NC2=O)NC(=O)[C@H](CCCN)NC(=O)[C@H](CCN)NC(=O)[C@H](Cc2ccc(O)cc2)NC(=O)[C@H](CO)NC1=O [Ex. 58] (Ac-EW[Dab][Tle]AS[dP]P[Nle]SY[Dab][Orn][Dab][Dab][Dab][Dab][dF]L[Dab][Dab]T; lactam 1-14, 16-C) | – | 0.25 | 2 | 0.25 | 0.5 | 0.125 | 0.5 | 0.125 | <1
